For data set [1], the system named is human cord blood CD34+ cells. Put plainly: Bone marrow stem cell (hematopoietic trilineage) colony formation assay. The format is cell-based. The conditions noted are these: for Mean Number of Colonies, % of Control, 14 days / Mean Number of Colonies, % of Control, 8 days: normal bone marrow, compound at 40 µM, N = 2; for Mean Number of Colonies, % of Control, 8 days: total colonies at 8 days. The procedure: (§1) Human hematopoietic stem cell trilineage colony formation assays were performed as previously described by us. Briefly, human cord blood CD34+ cells (catalog #: 70008.5) were purchased from StemCell Technology Inc. and seeded at 1 × 10^4 cells per 35 mm dish. Cells were cultured in MethoCult™ Express (StemCell Technologies, Inc. (Vancouver, BC, Canada)) semisolid media, per the manufacturer’s instructions, in the presence of compound or vehicle (for controls). Compounds were added at final concentrations matching those used in the initial growth assay screens. At eight days, colonies (i.e., groups of ≥10 cells) were counted. At fourteen days, individual colonies of erythroid burst-forming units (BFU-E), colony-forming unit granulocyte–macrophage (CFU-GM), and colony-forming unit granulocyte, erythrocyte, monocyte, and megakaryocyte (CFU-GEMM) were identified based on the manufacturers’ morphologic characterization criteria. Assays were run in replicates of N = 2, and some were run in replicates of N = 4, as denoted. The mean number of colonies was then determined and expressed as the percentage of controls. The effect of each compound on inhibiting the growth of cancer cells relative to its toxic effects on normal bone marrow was evaluated. This was carried out by comparing colonies at 8 days for each cancer cell line to that of bone marrow. This information was used to calculate the efficacy ratio, as follows: efficacy ratio = (percent of remaining cancer cell colonies)/(percent of remaining bone marrow colonies). This was performed for all compounds at 40 µM and for selected compounds at 5.7 µM, as denoted. For compounds nominated for second-level screens, bone marrow colony formation assays were also repeated. Compounds were added at final concentrations matching those used in the initial screens.
In parallel with measuring growth inhibition of cancer cell growth, we measured the effect on human hematopoietic stem cells. Hematopoietic stem cells reside in the bone marrow and are the source of mature cells present in blood. Bone marrow is one of the most sensitive organs in the body to drug toxicity, and this is especially so for anticancer drugs, where bone marrow toxicity can approach 100% [78, 79, 80]. Bone marrow toxicity was measured by performing hematopoietic colony formation assays on human CD34+ stem cells. The stem cell nature of this assay permitted the assessment of trilineage colony formation: granulocytic (white blood cells), erythrocytic (red blood cells), and megakaryocytic (platelets), measured by the formation of CFU-GM, BFU-E, and CFU-GEMM colonies, respectively. Two measurements were taken. First, total colonies at eight days were measured, thereby matching the eight-day timeframe of cancer cell colony formation assays. Second, at fourteen days, individual colonies had differentiated, permitting quantification of each lineage.

Data set [2] deals with breast, prostate, colon, or lung cancer cell lines. Briefly: Eight-day colony formation assays, summary across the cancer cell line panel. To be noted: for efficacy at concentrations below 40 µM (in words): 8-day colony formation. The data set is classed as cell-based, human. The procedure:
Initial colony formation screening assays were conducted on all acquired compounds and examined at five different compound concentrations. Those meeting efficacy criteria underwent a second-level screen examining nine different compound concentrations. Eight-day colony formation assays of cancer cells were performed as described by us. Briefly, 0.5–1.0 × 10^3 cells were seeded into each well of a 12-well plate. Twenty-four hours later, the compound was added at the following final concentrations: 0 (DMSO-only control), 0.017, 0.12, 0.82, 5.7, and 40 µM. For each concentration, there were N = 2 replicates, i.e., 2 wells. Eight days later, plates were stained with trypan blue, visualized under light microscopy, and groups of three or more cells were scored as colonies. The mean number of colonies was then determined and expressed as the percentage of controls. Second-level screens were performed on compounds inhibiting colony formation by greater than 50% at 40 µM in at least two cell lines. Second-level assays used the following final concentrations of compound: 0 (DMSO only), 0.0061, 0.018, 0.05, 0.16, 0.49, 1.48, 4.44, 13.33, and 40 µM. All compounds were stored under desiccated conditions in a sealed container at minus 20 °C upon arrival. One day prior to use, they were dissolved in DMSO, stored at minus 20 °C as stock solutions, thawed just prior to use, and not reused.
as §1
We sought to identify compounds that would inhibit the growth of cancer cells, but that also did so selectively. Inhibition of cancer cell growth is a highly sought after attribute of anticancer agents. This was assessed by measuring the ability of a compound to inhibit cell growth in eight-day colony formation assays and examining concentrations ranging from 0.017 to 40 µM. Breast, colon, lung, and prostate cancer are four of the most common types of cancer in the United States, are major causes of cancer cell death, and were examined. […]

The test system of the next data set is NCI-60 cell lines. Briefly: NCI-60 cell line screen. The format is cell-based, human. To be noted: 48 h at 10 µM. The method, then: The above findings support the importance of Dxr2 and FolC2 sites, and of Dxr2-017 and FolC2-001 compounds, respectively. The NCI-60 cell line screen evaluates compound growth inhibition and cell toxicity in a highly standardized manner across 60 different cell lines. Dxr2-017 and FolC2-001 were evaluated in this assay (Figure S6). NCI-60 screens evaluate cells treated for 48 h at 10 µM with a given compound. […] Of high interest, in the NCI-60 screen, Dxr2-017 had relatively high activity against melanoma cell lines, inducing cell death in five cell lines ranging from 25% to 65%, and inhibiting growth in four cell lines ranging from 76% to 96%. Its impact on cell death represented the most striking relative difference in response across cell lines.

The next data set concerns HT29. Briefly: Eight-day colony formation assay, colon cancer HT29. The data set is classed as cell-based, human. The conditions noted are these: 0.82 µM. The method, then: Initial colony formation screening assays were conducted on all acquired compounds and examined at five different compound concentrations. Those meeting efficacy criteria underwent a second-level screen examining nine different compound concentrations. Eight-day colony formation assays of cancer cells were performed as described by us. Briefly, 0.5–1.0 × 10^3 cells were seeded into each well of a 12-well plate. Twenty-four hours later, the compound was added at the following final concentrations: 0 (DMSO-only control), 0.017, 0.12, 0.82, 5.7, and 40 µM. For each concentration, there were N = 2 replicates, i.e., 2 wells. Eight days later, plates were stained with trypan blue, visualized under light microscopy, and groups of three or more cells were scored as colonies. The mean number of colonies was then determined and expressed as the percentage of controls. […]
In addition to screens, eight-day colony formation assays were conducted for certain experiments, as denoted. […] The IC50 values were calculated using nonlinear regression analysis. […] The IC50 values were determined using the dose–response inhibition function. […]
Human hematopoietic stem cell trilineage colony formation assays were performed as previously described by us. […] At eight days, colonies (i.e., groups of ≥10 cells) were counted. […] The mean number of colonies was then determined and expressed as the percentage of controls. […]

In the case of `c1ccc(CCc2n[nH]c(-c3ccccn3)n2)cc1` [FolC1-031], in data set [1], the “Mean Number of Colonies, % of Control, 14 days” value is recorded as 85 % of Control and the “Mean Number of Colonies, % of Control, 8 days” value was 80 % of Control.

In the case of `O=C(COC(=O)c1cccs1)c1ccc2[nH]c(=O)[nH]c2c1` [TYLT-003], in data set [1], the “Mean Number of Colonies, % of Control, 14 days” value was 94 % of Control and the “Mean Number of Colonies, % of Control, 8 days” value is given as 97 % of Control.

For the compound `O=C(Cn1c(=O)oc2ccccc21)N1CCn2c1nc1ccccc12` [FolC2-001], in data set [2] (40 µM, 8 days), the “efficacy ratio, mean ± SEM over cell lines with ratio below 0.5” value is on record as 0.29 ± 0.09 and the “number of cell lines with efficacy ratio below 0.5” value is listed as “five”. Further, the “efficacy at concentrations below 40 µM (in words)” value in data set [2] is “rapidly dropped off below 40 µM”. In addition, in data set [1], the “Mean Number of Colonies, % of Control, 14 days” value is 87 % of Control and the “Mean Number of Colonies, % of Control, 8 days” value was 108 % of Control. Also, the “activity in the NCI-60 screen (in words)” value in the data set on NCI-60 cell lines was “against H226”.

For `O=C(CCc1c[nH]c2ccccc12)N1CCSc2ccccc21` [FolC2-005], in data set [2], the “efficacy at concentrations below 40 µM (in words)” value was “A similar phenomenon was observed”. Further, in data set [1], the “Mean Number of Colonies, % of Control, 14 days” value was 101 % of Control and the “Mean Number of Colonies, % of Control, 8 days” value is reported as 105 % of Control.

Consider `Cc1nnsc1C(=O)OCCCn1c(=O)[nH]c2ccccc21` [Dxr2-001], for which, in data set [1], the “Mean Number of Colonies, % of Control, 14 days” value is 93 % of Control and the “Mean Number of Colonies, % of Control, 8 days” value is given as 109 % of Control.

On to `O=c1[nH]cc(F)c(=O)[nH]1` [Compound 5FU, 5-fluorouracil, reference compound], for which, in the data set on HT29, the “efficacy ratio (cancer cell colonies / bone marrow colonies, 8 days)” value is 0.82. Further, the results for the “effect on bone marrow colony formation (in words)” value in data set [1] (0.82 µM), in data set [1] (5.7 µM) and in data set [1] (40 µM) were “no effect on bone marrow”, “profound suppressive effects” and “completely suppressed colony formation”, respectively. For the same compound, in data set [1] (5.7 µM, 8 days), the “hematopoietic colony formation, % of the control” value is on record as 38 % of the control.

As for `Cc1[nH]c(=O)[nH]c1C(=O)CCCCC(=O)O` [EPSP-023], in data set [1], the “Mean Number of Colonies, % of Control, 14 days” value is given as 114 % of Control and the “Mean Number of Colonies, % of Control, 8 days” value is 94 % of Control.

For `O=C(Nc1nnn[nH]1)c1cc(-c2ccccc2)nc2ccccc12` [PRT-051], in data set [1], the “Mean Number of Colonies, % of Control, 14 days” value was 119 % of Control and the “Mean Number of Colonies, % of Control, 8 days” value is on record as 93 % of Control.

As to `O=C(Cc1n[nH]c(=O)c2ccccc12)Nn1cnc2ccccc21` [TYLT-001], in data set [1], the “Mean Number of Colonies, % of Control, 14 days” value is given as 103 % of Control and the “Mean Number of Colonies, % of Control, 8 days” value is 117 % of Control.
